Measurements: the NIST ThermoML archive (doi:10.1016/j.jct.2012.10.025)
± gives the expanded uncertainty stated by the source.

Settings: Liquid; for speed of sound: Pulse-echo method; for mass density: Vibrating tube method

Structure (SMILES): CCCCCCCCCCC [undecane]
- speed of sound (278 K, 1000 kPa): 1355.2 ± 5.6 m/s
- mass density (278 K, 1000 kPa): 752.64 ± 1.2 kg/m3
- speed of sound (278 K, 20000 kPa): 1455.4 ± 6 m/s
- mass density (278 K, 20000 kPa): 764.19 ± 1.3 kg/m3
- speed of sound (278 K, 40000 kPa): 1547.8 ± 6.3 m/s
- mass density (278 K, 40000 kPa): 775.36 ± 1.4 kg/m3
- speed of sound (278 K, 60000 kPa): 1629.3 ± 6.6 m/s
- mass density (278 K, 60000 kPa): 785.14 ± 1.4 kg/m3
- speed of sound (278 K, 80000 kPa): 1702.6 ± 6.9 m/s
- speed of sound (278 K, 100000 kPa): 1770.5 ± 7.2 m/s
- speed of sound (288 K, 1000 kPa): 1315 ± 5.4 m/s
- mass density (288 K, 1000 kPa): 745.18 ± 1.2 kg/m3
- speed of sound (288 K, 20000 kPa): 1419.1 ± 5.8 m/s
- mass density (288 K, 20000 kPa): 757.29 ± 1.3 kg/m3
- speed of sound (288 K, 40000 kPa): 1514.4 ± 6.2 m/s
- mass density (288 K, 40000 kPa): 768.82 ± 1.4 kg/m3
- speed of sound (288 K, 60000 kPa): 1598 ± 6.5 m/s
- mass density (288 K, 60000 kPa): 778.9 ± 1.4 kg/m3
- speed of sound (288 K, 80000 kPa): 1673 ± 6.8 m/s
- speed of sound (288 K, 100000 kPa): 1742.4 ± 7.1 m/s
- speed of sound (298 K, 1000 kPa): 1275.2 ± 5.2 m/s
- mass density (298 K, 1000 kPa): 737.58 ± 1.2 kg/m3
- speed of sound (298 K, 20000 kPa): 1383.2 ± 5.7 m/s
- mass density (298 K, 20000 kPa): 750.5 ± 1.3 kg/m3
- speed of sound (298 K, 40000 kPa): 1481.3 ± 6.1 m/s
- mass density (298 K, 40000 kPa): 762.53 ± 1.3 kg/m3
- speed of sound (298 K, 60000 kPa): 1566.9 ± 6.4 m/s
- mass density (298 K, 60000 kPa): 773.01 ± 1.4 kg/m3
- speed of sound (298 K, 80000 kPa): 1643.4 ± 6.7 m/s
- speed of sound (298 K, 100000 kPa): 1714.4 ± 7 m/s
- speed of sound (308 K, 1000 kPa): 1236.3 ± 5.1 m/s
- mass density (308 K, 1000 kPa): 729.86 ± 1.2 kg/m3
- speed of sound (308 K, 20000 kPa): 1348.6 ± 5.5 m/s
- mass density (308 K, 20000 kPa): 743.8 ± 1.3 kg/m3
- speed of sound (308 K, 40000 kPa): 1449.8 ± 5.9 m/s
- mass density (308 K, 40000 kPa): 756.47 ± 1.3 kg/m3
- speed of sound (308 K, 60000 kPa): 1537.3 ± 6.3 m/s
- mass density (308 K, 60000 kPa): 767.47 ± 1.4 kg/m3
- speed of sound (308 K, 80000 kPa): 1615.1 ± 6.6 m/s
- speed of sound (308 K, 100000 kPa): 1687.2 ± 6.9 m/s
- speed of sound (318 K, 1000 kPa): 1197.9 ± 4.9 m/s
- mass density (318 K, 1000 kPa): 722.02 ± 1.2 kg/m3
- speed of sound (318 K, 20000 kPa): 1314.1 ± 5.4 m/s
- mass density (318 K, 20000 kPa): 737.19 ± 1.2 kg/m3
- speed of sound (318 K, 40000 kPa): 1418.4 ± 5.8 m/s
- mass density (318 K, 40000 kPa): 750.63 ± 1.3 kg/m3
- speed of sound (318 K, 60000 kPa): 1508.1 ± 6.2 m/s
- mass density (318 K, 60000 kPa): 762.26 ± 1.4 kg/m3
- speed of sound (318 K, 80000 kPa): 1587.7 ± 6.5 m/s
- speed of sound (318 K, 100000 kPa): 1661.4 ± 6.8 m/s
